Source: patent US20120083522A1, “MODULATION OF INFLAMMATORY RESPONSES BY FACTOR XI” (Isis Pharmaceuitcals, inc., priority 2009, published 2012)
In the oligonucleotide strings, read from the 5' end, every base follows the letter of its sugar. An asterisk marks phosphorothioate; unmarked linkages are phosphodiester. Other units and linkages are bracketed, terminal groups are in braces. A string of capitals states the bases alone. e = 2'-O-(2-methoxyethyl) (MOE); [5mC] = 5-methylcytosine; d = 2'-deoxy (DNA)

Experiments:
[1] = test system: human Factor XI mRNA; test: Dose-dependent inhibition and IC50 in HepG2 cells, microwalk gapmers, electroporation (Example 16); type: cell-based
Protocol: These gapmers were tested at various doses in HepG2 cells. Cells were plated at a density of 20,000 cells per well and transfected using electroporation with 375 nM, 750 nM, 1,500 nM, 3,000 nM, 6,000 nM and 12,000 nM concentrations of antisense oligonucleotide, as specified in Table 54. After a treatment period of approximately 16 hours, RNA was isolated from the cells and Factor XI mRNA levels were measured by quantitative real-time PCR. Human Factor XI primer probe set RTS 2966 was used to measure mRNA levels. Factor XI mRNA levels were adjusted according to total RNA content, as measured by RIBOGREEN. Results are presented as percent inhibition of Factor XI, relative to untreated control cells.
ISIS 416850, ISIS 416858, ISIS 445522, and ISIS 445531 (see Table 52 above) were re-tested in vitro along with the microwalk gapmers under the same conditions described above.
The chimeric antisense oligonucleotides in Table 53 were designed as 3-8-3 MOE, 4-8-4 MOE, 2-10-2 MOE, 3-10-3 MOE, or 4-10-4 MOE gapmers. The 3-8-3 gapmer is 14 nucleotides in length, wherein the central gap segment is comprised of eight 2′-deoxynucleotides and is flanked on both sides (in the 5′ and 3′ directions) by wings comprising three nucleotides each. The 4-8-4 gapmer is 16 nucleotides in length, wherein the central gap segment is comprised of eight 2′-deoxynucleotides and is flanked on both sides (in the 5′ and 3′ directions) by wings comprising four nucleotides each. The 2-10-2 gapmer is 14 nucleotides in length, wherein the central gap segment is comprised of ten 2′-deoxynucleotides and is flanked on both sides (in the 5′ and 3′ directions) by wings comprising two nucleotides each. The 3-10-3 gapmer is 16 nucleotides in length, wherein the central gap segment is comprised of ten 2′-deoxynucleotides and is flanked on both sides (in the 5′ and 3′ directions) by wings comprising three nucleotides each. The 4-10-4 gapmer is 18 nucleotides in length, wherein the central gap segment is comprised of ten 2′-deoxynucleotides and is flanked on both sides (in the 5′ and 3′ directions) by wings comprising four nucleotides each. For each of the motifs (3-8-3, 4-8-4, 2-10-2, 3-10-3, and 4-10-4), each nucleotide in the 5′ wing segment and each nucleotide in the 3′ wing segment has a 2′-MOE modification. The internucleoside linkages throughout each gapmer are phosphorothioate (P═S) linkages. All cytidine residues throughout each gapmer are 5-methylcytidines. “Human Target start site” indicates the 5′-most nucleotide to which the gapmer is targeted in the human sequence. “Human Target stop site” indicates the 3′-most nucleotide to which the gapmer is targeted in the human sequence. Each gapmer listed in Table 53 is targeted to SEQ ID NO: 1 (GENBANK Accession No. NM_000128.3). Each gapmer is Table 53 is also fully cross-reactive with the rhesus monkey Factor XI gene sequence, designated herein as SEQ ID NO: 274 (exons 1-15 GENBANK Accession No. NW—001118167.1). ‘Rhesus monkey start site’ indicates the 5′-most nucleotide to which the gapmer is targeted in the rhesus monkey sequence. ‘Rhesus monkey stop site’ indicates the 3′-most nucleotide to which the gapmer is targeted to the rhesus monkey sequence.
The first two listed gapmers in Table 54 are the original gapmers (ISIS 416850 and ISIS 416858) from which the remaining gapmers were designed via microwalk and are designated by an asterisk.

[2] = test system: DSS-induced colitis model; test: Colitis Study A: colon tissue histopathology
[3] = test system: IL-1, IL-6, IL-10, IL-12, IL-17, TNF-α, GATA-3; test: Colitis Study F: cytokine and GATA-3 mRNA levels in colon; type: in vivo, Swiss Webb mice; details: day 7
Protocol: In a first group of 8 Swiss Webb mice, 50 mg/kg of ISIS 404071 was injected subcutaneously twice a week for 3 weeks. Two control groups of 8 mice each were injected with PBS twice a week for 3 weeks. After the oligonucleotide treatment, 4% DSS in water was administered ad libitum for 7 days to the experimental group and one PBS control group. Mice were sacrificed at the end of the study on day 7 after DSS was administered.
The mRNA levels of cytokines IL-1, IL-6, IL-10, IL-12, IL-17 and TNF-α were measured in the colon of the mice groups at the end of the study on day 7 after DSS was administered. Colons were homogenized on ice in PBS supplemented with protease inhibitors (Sigma, St. Louis, Mo.) and extracted with rotation at 4° C. for 1 hour. After removal of insoluble material by centrifugation, colon homogenates were used for the cytokine analysis by multiplex ELISA (Meso Scale Discovery, Gaithersburg, Md.) according to the manufacture's protocol. Cytokine levels in colon extracts were normalized to the protein concentration measured by protein assay kit (BioRad, Hercules, Calif.). The levels of pro-inflammatory cytokines, including Th1 cytokines IL-1 and IL-6, elevated by DSS administration were decreased by treatment with ISIS 404071.

Substance	percent inhibition of Factor XI mRNA ([1]; electroporation, 375 nM) [%]	percent inhibition of Factor XI mRNA ([1]; electroporation, 750 nM) [%]	percent inhibition of Factor XI mRNA ([1]; electroporation, 1,500 nM) [%]	percent inhibition of Factor XI mRNA ([1]; electroporation, 3,000 nM) [%]	percent inhibition of Factor XI mRNA ([1]; electroporation, 6,000 nM) [%]	percent inhibition of Factor XI mRNA ([1]; electroporation, 12,000 nM) [%]	colon histology, lesions (in words) ([2]; FIG. 8)	colon histology, lesions (in words) ([2]; FIG. 8, listed as Factor XI)	mucosa ulcers ([2]; FIG. 8D, DSS control 2-4/animal)	pro-inflammatory cytokines incl. IL-1 and IL-6 in colon (in words) ([3]; Colitis Study F)	GATA-3 mRNA level in the colon ([3]; DSS-treated mice, 50 mg/kg)	IL-1 mRNA level in the colon ([3]; DSS-treated mice, 50 mg/kg)	IL-6 mRNA level in the colon ([3]; DSS-treated mice, 50 mg/kg)	IL-10 mRNA level in the colon ([3]; DSS-treated mice, 50 mg/kg)	IL-12 mRNA level in the colon ([3]; DSS-treated mice, 50 mg/kg)	IL-17 mRNA level in the colon ([3]; DSS-treated mice, 50 mg/kg)	TNF-α mRNA level in the colon ([3]; DSS-treated mice, 50 mg/kg)
416850 (antisense TGCACAGTTTCTGGCAGGCC; 5-10-5 gapmer, wing sugar chemistry not given here, further chemistry not given here) [compound 416850]	40	59	69	87	90	95											
416858 (antisense ACGGCATTGGTGCACAGTTT; 5-10-5 gapmer, wing sugar chemistry not given here, further chemistry not given here) [compound 416858]	31	35	78	85	90	93											
445522 (antisense eG*e[5mC]*eA*e[5mC]*eA*dG*dT*dT*dT*d[5mC]*dT*dG*dG*e[5mC]*eA*eG*eG*e[5mC]) [compound 445522]	59	71	83	82	81	92											
445531 (antisense eG*eG*e[5mC]*eA*eT*dT*dG*dG*dT*dG*d[5mC]*dA*d[5mC]*eA*eG*eT*eT*eT) [compound 445531]	44	64	78	86	91	93											
TGGTAATCCACTTTCAGAGG (eT*eG*eG*eT*eA*dA*dT*d[5mC]*d[5mC]*dA*d[5mC]*dT*dT*dT*d[5mC]*eA*eG*eA*eG*eG) [ISIS 404071, 5-10-5 MOE gapmer targeting murine Factor XI, target start site 869]							significantly fewer mucosa ulcerative lesions	significantly milder ulcerative colitis lesions	> 1 /animal	decreased	359 % of PBS treated animals	1189 % of PBS treated animals	1056 % of PBS treated animals	202 % of PBS treated animals	234 % of PBS treated animals	787 % of PBS treated animals	1127 % of PBS treated animals
